Assay results published in publication PMC12006171, “Marsupial cathelicidins: characterization, antimicrobial activity and evolution in this unique mammalian lineage” (Frontiers in Immunology, 2025).
≈ marks a conversion by molar mass, not a printed value. Like-named read-outs stand apart in the source and are kept apart here. Where a SMILES comes first, the peptide text is derived from it.

Legend:
[1] = system: three fungi (Candida krusei, Candida parapsilosis, Candida albicans); assay: Antifungal screening, summary over the panel of fungi (broth microdilution); type: cell-based; conditions: synthesized mature peptide
Description: Antimicrobial testing of 78 cathelicidin MPs was performed in two phases as outlined in Figure 1 . In phase I, 40 peptides (27 extant and 13 ancestral) were selected for testing based on rank (outlined above) and similarity to published marsupial cathelicidins with known antimicrobial activity ([33], [41]–[43]). These peptides were tested against nine bacteria (Staphylococcus aureus ATCC 29213 and clinical isolate, Escherichia coli ATCC 25922 and clinical isolate, Pseudomonas aeruginosa ATCC 27853 and clinical isolate, Streptococcus agalactiae ATCC 12386 and clinical isolate, Streptococcus pneumoniae ATCC 49619) and three fungi (Candida krusei ATCC 6258, Candida parapsilosis ATCC 22019, and Candida albicans clinical isolate). Details regarding these strains are available in Supplementary Table 4 . The antimicrobial activity of cathelicidins was determined as the minimum inhibitory concentration (MIC), which was the lowest concentration of cathelicidin that prevented visible bacterial or fungal growth, relative to the negative control. […] Minimum bactericidal concentration (MBC) and/or minimum fungicidal concentration (MFC) was conducted to determine microbicidal versus static action. Activity against S. aureus ATCC, E. coli ATCC, and Pseudomonas aeruginosa ATCC 27853 was examined in the presence of divalent cations to determine the impact of inhibitors.
Antimicrobial activity was determined using a broth microdilution susceptibility assay in 96 well polypropylene plates according to Clinical Laboratory Standards Institute guidelines M07-A and M26A as described previously ([33], [42], [43]). The bacterial and fungal isolates from humans and animals used in this study are outlined in Supplementary Table 4 . Only yeasts were included in the panel of fungi as they have been used in the susceptibility testing of eutherian ([3], [81]–[83]) and other marsupial cathelicidins previously ([33], [42], [43]). Cathelicidin mature peptides were solubilized in DMSO and serially diluted in duplicate from 128-0.25μg/mL in a final volume of 100µL. For bacteria, cathelicidins were diluted in Mueller Hinton Broth (MHB) with or without 10% lysed horse blood, and with (MH II B) or without (MHB) calcium and magnesium cations. For fungi, cathelicidins were diluted in Roswell Park Memorial Institute medium (RPMI)-1640 MOPS. Ampicillin or tetracycline were included as a positive control for Gram-positive and -negative bacteria respectively, while amphotericin B was used for fungi. A media-only negative control and growth control (no cathelicidin) were also included on each plate. Bacteria were sub-cultured on Muller Hinton agar (MHA) or sheep blood agar (BA), and fungi on Sabouraud dextrose agar (SAB), 20–24 hours prior to the test. Colonies were suspended in saline, the concentration adjusted to a 0.5 McFarland standard, and then diluted in media to a concentration of 1.0 x 10^6 cells/mL. Then, 100μL was added to each well of the cathelicidin dilution plate, giving a final inoculum density of 5 x 10^5 CFU/mL and cathelicidin concentration of 64-0.125μg/mL. Colony counts were performed on MHA/BA/SAB to confirm inoculum density. All plates were incubated at 35°C for 20–24 hours, depending on the strain.
Colonies were counted and compared to the colony count of the starting inoculum.

[2] = system: six bacteria (S. aureus, E. coli, P. aeruginosa; ATCC and clinical isolate); type: cell-based; conditions: synthesized mature peptide
Outline: (§1)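 Bacteria at a final 5 x 10^5 CFU/mL were incubated 20–24 h at 35 °C with DMSO-solubilized peptides serially diluted to 64–0.125 μg/mL in Mueller Hinton broth (± lysed horse blood, ± divalent cations). MIC read as no visible growth; bactericidal action from colony counts compared with the inoculum.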

[3] = system: Escherichia coli ATCC 25922; assay: microbe, parasite or virus in culture; type: cell-based; conditions: ATCC 25922
Outline: as §1

[4] = system: Staphylococcus aureus ATCC 29213; assay: microbe, parasite or virus in culture; type: cell-based; conditions: ATCC 29213
Outline: as §1

[5] = system: Pseudomonas aeruginosa clinical isolate - animal; assay: microbe, parasite or virus in culture; type: cell-based; conditions: clinical isolate - animal; read-out: MIC P. aeruginosa
Outline: as §1

[6] = system: Staphylococcus aureus clinical isolate - animal; assay: microbe, parasite or virus in culture; type: cell-based; conditions: clinical isolate - animal
Outline: as §1

[7] = system: Pseudomonas aeruginosa ATCC 27853; assay: microbe, parasite or virus in culture; type: cell-based; conditions: ATCC 27853; read-out: MIC P. aeruginosa ATCC
Outline: as §1

[8] = system: Escherichia coli clinical isolate - animal; assay: microbe, parasite or virus in culture; type: cell-based; conditions: clinical isolate - animal
Outline: as §1

[9] = system: Staphylococcus aureus clinical isolate – animal, penicillin-resistant (PRSA); type: cell-based; conditions: clinical isolate – animal, penicillin-resistant (PRSA)
Outline: (§2)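 MIC defined as lowest peptide level preventing visible growth after 20–24 h at 35°C. Candida tested in RPMI-1640 MOPS; bacteria in Mueller Hinton broth, optionally with 10% lysed horse blood and/or divalent cations. Final peptide range 64-0.125 μg/mL, starting inoculum 5 x 10^5 CFU/mL, per CLSI M07-A/M26A.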

[10] = system: Staphylococcus aureus clinical isolate – animal, methicillin-resistant (MRSA); type: cell-based; conditions: clinical isolate – animal, methicillin-resistant
Outline: as §2

[11] = system: Streptococcus pneumoniae ATCC 49619; assay: microbe, parasite or virus in culture; type: cell-based; conditions: ATCC 49619; read-out: MIC S. pneumoniae ATCC
Outline: as §2

[12] = system: Streptococcus agalactiae Clinical isolate - animal; assay: microbe, parasite or virus in culture; type: cell-based; conditions: clinical isolate - animal
Outline: as §2

[13] = system: Streptococcus agalactiae ATCC 12386; assay: microbe, parasite or virus in culture; type: cell-based; conditions: ATCC 12386; read-out: MIC S. agalactiae ATCC
Outline: as §2

[14] = system: S. aureus ATCC 29213; assay: Killing kinetics (time kill assay); type: cell-based, Staphylococcus aureus; conditions: MHB, 35°C, sampled 1-24 hours, n = 2
Description: The killing kinetics assay was conducted using mid-logarithmic phase cultures of E. coli ATCC 25922 and S. aureus ATCC 29213 in MHB. Cultures were adjusted to a 0.5 McFarland standard, diluted in MHB, and then 100µL was added to each culture tube containing 10mL pre-warmed MHB to give a final inoculum concentration of 5 x 10^5 CFU/mL. A sterility control of 100uL MHB, growth control (no cathelicidin), and vehicle control (DMSO) were also included. Furthermore, 10uL was immediately removed from the growth control tube, diluted 1/1000 in saline and 100µL plated onto MHA in duplicate to confirm inoculum density. To establish colony counts from 0 hours of cathelicidin treatment, 200µL was removed from each culture tube and serially diluted ten-fold in saline from 10^0 to […] in a total volume of 200µL. Then, 10µL of each dilution was spotted onto MHA in duplicate, which were incubated at 35°C for 24 hours.
All culture tubes were then incubated at 35°C static. At 1, 2, 4, 6, 8, 10, 12, and 24 hours post-cathelicidin treatment, 200µL was removed from each culture tube for dilution and plated on MHA as described above. […] Counts of duplicates were averaged, and the log10 CFU/mL graphed against time. This was used as input for one-way ANOVA (p < 0.05) followed by Dunnett’s post hoc test.

RQRRLPFLGDPRRFPRPRGRPQPDPRQGRPN [MAP4, marsupial ancestral peptide, predicted by ANCESCON and GASP, synthesized]
Antifungal (MIC <64ug/mL) ([1]; antimicrobial screening Phase I, Y/N summary over fungi tested, broth microdilution): N (Antifungal (MIC <64ug/mL)) | Antibacterial (MIC <64ug/mL) ([2]; antimicrobial screening Phase I, Y/N summary over bacteria tested, broth microdilution): N (Antibacterial (MIC <64ug/mL))

PELLRSRRSPLPRRKKGSKKNSYKTGGYSVIALGKSNVHKAPYMEAL [TrvuCath1]
Antifungal (MIC <64ug/mL) ([1]; broth microdilution screening, phase I, Y/N summary over the fungi tested): N (Antifungal (MIC <64ug/mL)) | Antibacterial (MIC <64ug/mL) ([2]; broth microdilution screening, phase I or II, Y/N summary over the bacteria tested): N (Antibacterial (MIC <64ug/mL))

CC[C@H](C)[C@H](NC(=O)[C@H](CCCCN)NC(=O)[C@H](CC(N)=O)NC(=O)[C@H](CC(C)C)NC(=O)CNC(=O)[C@H](CCC(N)=O)NC(=O)CNC(=O)[C@H](CC(C)C)NC(=O)[C@H](CCCCN)NC(=O)[C@H](CCSC)NC(=O)[C@H](Cc1c[nH]c2ccccc12)NC(=O)CNC(=O)[C@H](CCCCN)NC(=O)[C@H](CCCCN)NC(=O)[C@H](CCC(=O)O)NC(=O)[C@H](Cc1c[nH]cn1)NC(=O)[C@H](CCCNC(=N)N)NC(=O)[C@H](CCCCN)NC(=O)[C@@H](NC(=O)[C@@H](N)CCCCN)[C@@H](C)CC)C(=O)N[C@@H](CC(C)C)C(=O)N[C@@H](CCCCN)C(=O)N[C@@H](Cc1c[nH]cn1)C(=O)N[C@@H](Cc1ccccc1)C(=O)N[C@@H](CC(N)=O)C(=O)N[C@H](C(=O)N[C@@H](CC(=O)O)C(=O)N[C@@H](Cc1ccccc1)C(=O)N[C@@H](CS)C(=O)N[C@@H](CC(C)C)C(=O)N[C@@H](CC(N)=O)C(=O)N[C@@H](CS)C(=O)O)[C@@H](C)CC [LalaCath3] (H-KIKRHEKKGWMKLGQGLNKILKHFNIDFCLNC-OH; N-terminus and C-terminus assumed)
MBC E. coli ATCC [3]: 8.3 (8.3)^8.3 µM | MIC E. coli ATCC [3]: 8.3 (8.3)^8.3 µM | MIC in the presence of cations E. coli ATCC [3]: 8.3 (8.3)^8.3 µM | MBC S. aureus ATCC [4]: 4.1 µM (≈ 15.8 µg/mL) | MIC ([4]; read-out: MIC S. aureus ATCC): 2 µM (≈ 7.68 µg/mL) | MIC ([4]; read-out: MIC in the presence of cations S. aureus ATCC): 2 µM | MIC [5]: >16.6 µM | MBC S. aureus [6]: 4.1 µM (≈ 15.8 µg/mL) | MIC ([6]; read-out: MIC S. aureus): 2 µM (≈ 7.68 µg/mL) | MIC ([6]; read-out: MIC in the presence of cations S. aureus): 2 µM | MIC [7]: >16.6 µM | MBC E. coli [8]: 16.6 (16.6)^>16.6 µM | MIC E. coli [8]: 16.6 (16.6)^>16.6 µM | MIC in the presence of cations E. coli [8]: 16.6 (16.6)^>16.6 µM | MBC PRSA [9]: 2 µM (≈ 7.68 µg/mL) | MIC PRSA [9]: 1 µM (≈ 3.84 µg/mL) | MBC MRSA [10]: 4.1 µM (≈ 15.8 µg/mL) | MIC MRSA [10]: 2 µM (≈ 7.68 µg/mL) | MIC [11]: >16.6 µM | MBC S. agalactiae [12]: 8.3 µM (≈ 31.9 µg/mL) | MIC S. agalactiae [12]: 8.3 µM (≈ 31.9 µg/mL) | MIC [13]: >16.6 µM | Number of hours to cause a significant reduction in log CFU/mL of S. aureus ATCC (p < 0.05) ([14]; 0.5x MIC): 4 hours | Number of hours to cause a significant reduction in log CFU/mL of S. aureus ATCC (p < 0.05) ([14]; 2x MIC): 2 hours | Number of hours to cause a significant reduction in log CFU/mL of S. aureus ATCC (p < 0.05) ([14]; MIC): 4 hours
